Data from PubChem BioAssay (NCI).
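Method: 48-hour compound exposure of cells in 96-well plates, five concentrations, linear interpolation of endpoints. TGI denotes the concentration required for complete inhibition of growth.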

How the values were obtained:
Test in all cases: growth of human tumour cells (NCI), 48 h
MCF7 breast = tested on: MCF7 breast
HL-60(TB) leukemia = tested on: HL-60(TB) leukemia
HCT-116 colon = tested on: HCT-116 colon
LOX IMVI melanoma = tested on: LOX IMVI melanoma
SNB-19 CNS = tested on: SNB-19 CNS
UO-31 renal = tested on: UO-31 renal
MDA-MB-435 = tested on: MDA-MB-435
T-47D breast = tested on: T-47D breast
SK-MEL-2 melanoma = tested on: SK-MEL-2 melanoma
KM12 colon = tested on: KM12 colon
MDA-N = tested on: MDA-N
SF-539 CNS = tested on: SF-539 CNS
TK-10 renal = tested on: TK-10 renal
COLO 205 colon = tested on: COLO 205 colon
CAKI-1 renal = tested on: CAKI-1 renal
SN12C renal = tested on: SN12C renal

SMILES | TGI (MCF7 breast) [µM] | TGI (HL-60(TB) leukemia) [µM] | TGI (HCT-116 colon) [µM] | TGI (LOX IMVI melanoma) [µM] | TGI (SNB-19 CNS) [µM] | TGI (UO-31 renal) [µM] | TGI (MDA-MB-435) [µM] | TGI (T-47D breast) [µM] | TGI (SK-MEL-2 melanoma) [µM] | TGI (KM12 colon) [µM] | TGI (MDA-N) [µM] | TGI (SF-539 CNS) [µM] | TGI (TK-10 renal) [µM] | TGI (COLO 205 colon) [µM] | TGI (CAKI-1 renal) [µM] | TGI (SN12C renal) [µM]
COc1ccc(Nc2nc3ccccc3n3cccc23)cc1OC | 29.6 | 9.51 | 36.4 | 27.4 | > 100 | 39.2 | 26.7 | 15.2 | 33.3 | 29.1 | 29.4 | 35 | 39 | 27.4 | 89.1 | 
CCc1n[nH]c(=O)n1CCCCCCCCn1c(CC)n[nH]c1=O | > 100 |  | > 100 | > 100 | > 100 | > 100 | > 100 | > 100 | > 100 | > 100 | > 100 | > 100 | > 100 | > 100 | > 100 | > 100
O=C/C(=C1/C=Cc2cc([N+](=O)[O-])ccc2S1)c1ccccc1 | > 100 | > 100 | > 100 | > 100 | > 100 | > 100 | > 100 | > 100 | > 100 |  | > 100 | > 100 | > 100 | > 100 | > 100 | > 100
Cc1ccc(S(=O)c2cccs2)cc1 (centres undefined) | > 100 | > 100 | > 100 |  | > 100 | > 100 | > 100 | > 100 |  | > 100 | > 100 | > 100 | > 100 | > 100 |  | > 100
C[C@]12C=CC(=O)C=C1CC[C@@H]1[C@@H]2CC[C@@]2(C)[C@H]1CC[C@]2(O)C(N)=O |  | > 100 | > 100 | > 100 | > 100 | > 100 | > 100 | > 100 | > 100 | > 100 | > 100 | > 100 | > 100 | > 100 |  | > 100
O=C(NCCN1CCCCC1)c1ccc(Br)cc1 | > 100 | > 100 | > 100 | > 100 | > 100 | > 100 | > 100 | > 100 | > 100 | > 100 | > 100 |  | > 100 | > 100 | > 100 | > 100
CC(C)(C)OC(=O)NC1CCCC1C(=O)C1=CCCC1 (centres undefined) |  | > 100 | > 100 | > 100 | > 100 |  | > 100 | > 100 | > 100 | > 100 | > 100 |  |  | > 100 |  | > 100
COC(=O)C1(NC(=O)C(Cc2ccccc2)N(C(=O)OC(C)(C)C)C(=O)OC(C)(C)C)CCCC1 (centres undefined) | 64.6 | 62.1 | > 100 | > 100 | > 100 | > 100 | > 100 | > 100 | > 100 |  | > 100 | > 100 | > 100 | > 100 |  | > 100
CC1(C)OP(=O)(c2ccccc2)C=C1Sc1ccc([N+](=O)[O-])cc1[N+](=O)[O-] (centres undefined) | > 100 | 37.4 | > 100 | > 100 | > 100 |  | > 100 | > 100 | > 100 | > 100 | > 100 | > 100 | > 100 | > 100 | > 100 | > 100
CCOC(=O)c1c[nH]c(C(=O)OCC)c1-c1cccn1-c1ccccc1 |  | 54.4 | 30.3 | 32.4 | > 100 | 77.4 | > 100 | > 100 | 35.5 | 24.6 | 99.2 |  | > 100 | 38.5 | 67.7 | 69.2
O=[N+]([O-])c1ccc(SN=S=NSc2cccc(SN=S=NSc3ccc([N+](=O)[O-])cc3)c2)cc1 | 75 | 83.7 | > 100 | 35.5 | > 100 | 70.2 | 71.2 | 38.9 | 34.1 | > 100 | 98.8 |  |  | > 100 | 41.1 | 29.2
FC(F)(F)c1ccc(C2ON=C(c3ccccc3)N2C23CC4CC(CC(C4)C2)C3)cc1 (centres undefined) | > 10 | > 10 | > 10 | > 10 | > 10 |  | > 10 | > 10 | > 10 | > 10 | > 10 | > 10 | > 10 | > 10 | > 10 | > 10
O=c1[nH]nc(Cc2ccccc2)n1/N=C/c1cccs1 | > 100 |  | > 100 | > 100 | > 100 | > 100 | > 100 | > 100 | > 100 | > 100 | > 100 | > 100 |  | > 100 | > 100 | > 100
Cc1cccc(C2ON=C(c3ccccc3)N2C23CC4CC(CC(C4)C2)C3)c1 (centres undefined) | > 10 | > 10 | > 10 | > 10 | > 10 |  | > 10 | > 10 | > 10 | > 10 | > 10 | > 10 | > 10 | > 10 | > 10 | > 10
CNC(=O)c1n[nH]n(C2CCCCC2)c1=S | > 100 | > 100 | > 100 | > 100 | > 100 | > 100 | > 100 | > 100 | > 100 | > 100 | > 100 | > 100 |  | > 100 | > 100 | > 100
CCC(NC(C)c1ccccc1)C(=O)c1ccc(OCc2ccccc2)c(OCc2ccccc2)c1 (centres undefined) | > 100 | > 100 | > 100 | > 100 | > 100 | > 100 | > 100 | > 100 |  | > 100 | > 100 | > 100 | > 100 | > 100 | > 100 | > 100
